Assay [1] has as its target T1, angiotensin II receptor (Rattus norvegicus, UniProt P25095).
T1 construct: A fresh membrane preparation obtained from the liver of a rat was used; from tissue; host or cells: rat liver, fresh membrane preparation
T1 sequence (P25095 1-359): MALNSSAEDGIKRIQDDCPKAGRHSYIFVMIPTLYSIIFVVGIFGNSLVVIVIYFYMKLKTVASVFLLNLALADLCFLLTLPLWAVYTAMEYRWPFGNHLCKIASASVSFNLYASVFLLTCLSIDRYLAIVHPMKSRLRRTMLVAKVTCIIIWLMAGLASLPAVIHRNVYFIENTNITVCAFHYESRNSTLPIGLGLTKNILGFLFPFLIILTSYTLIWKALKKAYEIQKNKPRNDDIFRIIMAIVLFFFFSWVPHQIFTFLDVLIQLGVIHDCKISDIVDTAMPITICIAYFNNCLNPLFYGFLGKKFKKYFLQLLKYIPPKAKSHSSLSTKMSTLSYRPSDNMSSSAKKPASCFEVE
As to the kind of experiment: Test on the angiotensin II receptor (displacement of 125I angiotensin II, fresh rat liver membrane preparation). To be noted: rat liver membranes, 25° C., 150 minutes, read-out: IC50 (50% inhibiting concentration, displacement of 125I angiotensin II). In kind it is binding. The protocol:
A fresh membrane preparation obtained from the liver of a rat was used. The tissue was ground in a polytron in a Tris 50 mM pH 7.4 buffer and the grinding is followed by 3 centrifugings at 30,000 g for 15 minutes with intermediate taking up of the pellets in the Tris pH 7.4 buffer.
The last pellets were suspended in an incubation buffer (Tris 20 mM, NaCl 135 mM, KCl 10 mM, glucose 5 mM, MgCl2 10 mM, PMSF 0.3 mM, bacitracin 0.1 mM, BSA 0.2%).
2 ml aliquot fractions were distributed in hemolysis tubes and ^125 I angiotensin II (25,000 DPM/tube) and the product to be studied were added. The product was first tested with 3×10^-5 M in triplicate. When the tested product displaced more than 50% of the radioactivity bound specifically to the receptor, it was tested again according to a range of 7 concentrations to determine the concentration which inhibited by 50% the radioactivity bound specifically to the receptor. In this way, the 50% inhibiting concentration was determined.
The non-specific bond was determined by the addition of the product of Example 94 of the European Patent 0253310, at 10^-5 M (in triplicate).The product was incubated at 25° C. for 150 minutes, put in a water-bath at 0° C. for 5 minutes, filtered under vacuum, rinsed with Tris pH 7.4 buffer and the radioactivity was counted in the presence of scintillating Triton. […]
A general note: Loss of bound radioactivity is the signal in a displacement assay; it reports binding, not function.

Assay [2] concerns angiotensin II. Nature of the assay: Test of the antagonistic activity of angiotensin II by oral route in a demedullated rat. In kind it is in vivo, Male Sprague Dawley rats. To be noted: oral (force-feeding), angiotensin II 0.75 ug/kg 60 and 75 minutes after force-feeding, read-out: ID50 (dose inhibiting the effects on pressure of angiotensin II by 50%), oral route. The protocol:
Male Sprague Dawley rats of equal weight (300-330 g) were selected. The animals were divided into several groups (n ≥6 per group), receiving either the solvent (control group) or the antagonistic molecule of angiotensin II. The doses administered were determined from the ID50 IV. The solvent used. was methyl cellulose (5 ml/kg).
45 minutes after force-feeding, the animals were anaesthetized with sodium pentobarbital (60 mg/kg, IP). The diastolic arterial pressure was recorded using a heparinated catheter (PE50) introduced into the left carotid artery of the animal, and connected by means of a pressure sensor (Gould, P10 EZ) to a pressure processor (Gould, Pressure Processor). The rat was put under assisted respiration, then demedullated and bilaterally vagotomized.
Two injections of angiotensin II (0.75 ug/kg; Hypertensin, Ciba) were given via the pudendal vein, 60 and 75 minutes respectively after the force-feeding of the animals.
The effects on pressure of angiotensin II in the presence of the antagonist were expressed as a percentage of the effects on pressure of angiotensin II administered to the control group.
For each product, the dose inhibiting the studied effect by 50% (ID50) was thus determined.

Assay [3] deals with angiotensin II. As to the kind of experiment: Test for antagonistic activity of angiotensin II in a demedullated rat (intravenous). It counts as in vivo, Male Sprague-Dawley rats. The following applies: injected via right jugular vein 5 minutes before angiotensin II (0.75 micrograms/kg), diastolic arterial pressure, read-out: ID50 (dose inhibiting the effects on pressure of angiotensin II by 50%). The protocol: Male Sprague-Dawley rats (250 to 350 g) were anaesthetized by an intra-peritoneal injection of sodium pentobarbital (60 mg/kg). The diastolic arterial pressure was recorded using a heparinated catheter (PE50) introduced into the left carotid artery of the animal, and connected to a pressure processor (Gould, Pressure Processor) by means of a Gould pressure sensor.
A catheter was introduced into the right jugular vein of the animal to permit the injection of the molecules to be studied.
The animal was placed under assisted respiration. A bilateral section of the pneumogastric nerve is carried out. The rat is then demedullated.
After a sufficient period of stabilization, the study of the antagonism of the molecules vis-a-vis angiotensin II (Hypertensin, CIBA) was carried out in the following way:
1--Three consecutive injections of angiotensin II (0.75 micrograms/kg) at 15 minute intervals enabled a reproducible and stable pressure response to be obtained.
2--While keeping an administration frequency of 15 minutes of the angiotensin II, the molecules (0.01 to 10 mg/kg) were injected 5 minutes before the angiotensin II.
The effects on pressure of angiotensin II in the presence of the antagonist were expressed as a percentage of the effects on pressure of angiotensin II administered on its own. The dose inhibiting the studied effect by 50% was determined in this way (ID50). […]

Structures are written as SMILES.

On to `CCCCc1nn2c(C)cccc2c1Cc1ccc(-c2ccccc2-c2nn[nH]n2)cc1` [Example 32, 2-butyl 7-methyl 3-[[2'-(1H-tetrazol--S--yl) (1,1'-biphenyl) 4-yl]methyl]pyrazolo (1,5-a) pyridine], for which the IC50 in assay [1] was 0.024 µM.
`CCCCc1nn2cccc(C(=O)O)c2c1Cc1ccc(-c2ccccc2-c2nnn[nH]2)cc1` [Example 21, 2-butyl 3-[(2'-(1H-tetrazol-5-yl) (1,1'-biphenyl) 4-yl)methyl]pyrazolo(1,5-a)pyridin 4-carboxylic acid]: the IC50 in assay [1] was 0.0005 µM. In addition, the ED50 in assay [2] was 2.35 mg/kg; in assay [3], 0.3 mg/kg.

Source of the values: patent publication US5420138A, “Bicyclic pyridines which are angiotensin II inhibitors” (Roussel-UCLAF, priority 1992, dated 1995).
